Data published in patent publication US9221822B2, “Thiazolopyrimidine modulators as immunosuppressive agents” (Katholieke Universiteit Leuven, K.U.Leuven R&D, priority 2009, dated 2015).

Test system: Human peripheral blood mononuclear cells (PBMCs) as Responder cells, RPMI 1788 Stimulator cells
Experiment: Mixed Lymphocyte Reaction (MLR) test
Format: cell-based
Settings: Homo sapiens, RPMI-1788, lowest concentration giving 50% inhibition of the MLR; 6 days coculture, 3H-thymidine incorporation
Method in brief: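 Human PBMC responders (0.12×10^6) were cocultured 6 days with mitomycin C-treated RPMI 1788 stimulators (0.045×10^6) and compound in RPMI 1640 with 10% FCS, in triplicate. A ^3H-thymidine pulse on day 5, harvested 18 h later, measured proliferation (cpm), converted to % inhibition versus a compound-free MLR.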

Row | SMILES | IC50
1 | COCCN1CCN(c2nc(N)nc3oc(-c4ccc(F)cc4)nc23)CC1 [Example 192, 5-amino-2-(4-fluorophenyl)-7-[4-(2-methoxyethyl)-piperazin-1-yl]-oxazolo[5,4-d]pyrimidine] | > 10 µM
2 | CC(=O)N1CCN(c2nc(N)nc3[nH]c(-c4ccc(F)cc4)nc23)CC1 [Example 408, 1-(4-(2-amino-8-(4-fluorophenyl)-9H-purin-6-yl)piperazin-1-yl)ethanone] | > 10 µM
3 | Cc1ccc(-c2nc3c(N4CCN(C(=O)COc5ccc(Cl)cc5)CC4)nc(N)nc3s2)cc1 [Example 295, 1-(4-(5-amino-2-p-tolylthiazolo[5,4-d]pyrimidin-7-yl)piperazin-1-yl)-2-(4-chlorophenoxy)ethanone] | 0.35 µM
4 | Nc1nc(N2CCN(CC(=O)Nc3ccccn3)CC2)c2nc(-c3ccc(F)cc3)[nH]c2n1 [Example 416, 2-(4-(2-amino-8-(4-fluorophenyl)-9H-purin-6-yl)piperazin-1-yl)-N-(pyridin-2-yl)acetamide] | 5.76 µM
5 | CCCSc1nc2c(N3CCN(C(=O)COc4ccc(Cl)cc4)CC3)nc(N)nc2[nH]1 [Example 425, 1-(4-(2-amino-8-(propylthio)-9H-purin-6-yl)piperazin-1-yl)-2-(4-chlorophenoxy)ethanone] | 1.02 µM
6 | Nc1nc(N2CCN(CC(=O)N3CCOCC3)CC2)c2nc(-c3ccc(F)cc3)[nH]c2n1 [Example 411, 2-(4-(2-amino-8-(4-fluorophenyl)-9H-purin-6-yl)piperazin-1-yl)-1-morpholinoethanone] | > 10 µM
7 | O=C(COc1ccc(Cl)cc1)N1CCN(c2ncnc3sc(CCc4ccc(F)cc4)nc23)CC1 [Example 303, 1-(4-(2-(4-fluorophenethyl)thiazolo[5,4-d]pyrimidin-7-yl)piperazin-1-yl)-2-(4-chlorophenoxy)ethanone] | 5.59 µM
8 | CN(C(=O)CN1CCN(c2nc(N)nc3oc(CCc4ccc(F)cc4)nc23)CC1)c1ccccc1 [Example 198, 5-amino-2-[2-(4-fluorophenyl)ethyl]-7-(4-[(methylphenyl-carbamoyl)methyl]piperazin-1-yl)-oxazolo[5,4-d]pyrimidine] | > 10 µM
9 | Nc1nc(N2CCN(C(=O)C3CCCCC3)CC2)c2cc(-c3ccc(F)cc3)sc2n1 [Example 345, (4-(2-amino-6-(4-fluorophenyl)thieno[2,3-d]pyrimidin-4-yl)piperazin-1-yl)(cyclohexyl)methanone] | > 10 µM
10 | N#Cc1ccc(NC(=O)N2CCN(c3nc(N)nc4sc(CCc5ccc(F)cc5)nc34)CC2)cc1 [Example 229, 4-(5-amino-2-(4-fluorophenethyl)thiazolo[5,4-d]pyrimidin-7-yl)-N-(4-cyanophenyl)piperazine-1-carboxamide] | 2.66 µM
11 | COc1ccc(OCC(=O)N2CCN(c3nc(N)nc4sc(-c5ccccc5)cc34)CC2)cc1 [Example 369, 1-(4-(2-amino-6-phenylthieno[2,3-d]pyrimidin-4-yl)piperazin-1-yl)-2-(4-methoxyphenoxy)ethanone] | 0.072 µM
12 | CCOc1nc(N)nc2sc(Cc3ccc(F)cc3)nc12 [Example 31, 7-ethoxy-2-(4-fluorobenzyl)thiazolo[5,4-d]pyrimidin-5-amine] | 9.7 µM
13 | COCc1nc2c(N3CCN(C(=O)COc4ccc(Cl)cc4)CC3)nc(N)nc2o1 [Example 186, 5-amino-7-[4-(4-chlorophenoxyacetyl)piperazin-1-yl]-2-methoxylmethyloxazolo[5,4-d]pyrimidine] | 1.83 µM
14 | Nc1nc(N2CCN(C(=O)COc3ccc(Br)cc3)CC2)c2nc(-c3ccc(F)cc3)sc2n1 [Example 235, 1-(4-(5-amino-2-(4-fluorophenyl)thiazolo[5,4-d]pyrimidin-7-yl)piperazin-1-yl)-2-(4-bromophenoxy)ethanone] | 0.46 µM
15 | CCOc1nc(N)nc2sc(-c3ccc(F)cc3)nc12 [Example 30, 7-ethoxy-2-(4-fluorophenyl)thiazolo[5,4-d]pyrimidin-5-amine] | > 10 µM
16 | CC(=O)c1ccc(OCC(=O)N2CCN(c3nc(N)nc4sc(CCc5ccc(F)cc5)nc34)CC2)cc1 [Example 227, 2-(4-acetylphenoxy)-1-(4-(5-amino-2-(4-fluorophenethyl)thiazolo[5,4-d]pyrimidin-7-yl)piperazin-1-yl)ethanone] | 0.61 µM
17 | Nc1nc(N2CCN(C(=O)COc3ccc(Cl)cc3)CC2)c2nc(Nc3ccc(F)cc3)sc2n1 [Example 127, 5-amino-7-[4-(4-chlorophenoxyacetyl)piperazin-1-yl]-2-(4-fluorophenylamino)-thiazolo[5,4-d]pyrimidine] | 6.77 µM
18 | Nc1nc(N2CCCN(C(=O)COc3ccc(Cl)cc3)CC2)c2cc(-c3ccccc3)sc2n1 [Example 334, 1-(4-(2-amino-6-phenylthieno[2,3-d]pyrimidin-4-yl)-1,4-diazepan-1-yl)-2-(4-chlorophenoxy)ethanone] | 8.83 µM
19 | Nc1nc(N2CCN(C(=O)COc3ccc(Cl)cc3)CC2)c2nc(SC3CCCC3)[nH]c2n1 [Example 429, 1-(4-(2-amino-8-(cyclopentylthio)-9H-purin-6-yl)piperazin-1-yl)-2-(4-chlorophenoxy)ethanone] | 0.51 µM
20 | COc1ccc(OCC(=O)N2CCN(c3ncnc4sc(-c5ccc(F)cc5)nc34)CC2)cc1 [Example 300, 1-(4-(2-(4-fluorophenyl)thiazolo[5,4-d]pyrimidin-7-yl)piperazin-1-yl)-2-(4-methoxyphenoxy)ethanone] | 5.53 µM
21 | Nc1nc(N2CCN(C(=O)COc3ccc(Cl)cc3)CC2)c2nc(Cc3ccc(Cl)cc3)sc2n1 [Example 122, 5-amino-7-[4-(4-chlorophenoxyacetyl)piperazin-1-yl]-2-(4-chlorophenylmethyl)thiazolo[5,4-d]pyrimidine] | > 10 µM
22 | Nc1nc(N2CCCN(C(=O)COc3ccc(Cl)cc3)CC2)c2nc(CCc3ccc(F)cc3)sc2n1 [Example 138, 5-amino-2-[2-(4-fluorophenyl)ethyl]-7-(4-[2-(4-chlorophenoxy)acetyl]homopiperazin-1-yl)-thiazolo[5,4-d]pyrimidine] | 2.1 µM
23 | Nc1nc(N2CCN(C(=O)CCc3ccc(F)cc3)CC2)c2nc(-c3ccc(F)cc3)sc2n1 [Example 236, 1-(4-(5-amino-2-(4-fluorophenyl)thiazolo[5,4-d]pyrimidin-7-yl)piperazin-1-yl)-3-(4-fluorophenyl)propan-1-one] | 0.89 µM
24 | Nc1nc(N2CCN(C(=O)COc3ccc(F)cc3)CC2)c2cc(-c3ccccc3)sc2n1 [Example 370, 1-(4-(2-amino-6-phenylthieno[2,3-d]pyrimidin-4-yl)piperazin-1-yl)-2-(4-fluorophenoxy)ethanone] | 0.066 µM
25 | Nc1nc(N2CCN(CC(=O)Nc3nccs3)CC2)c2nc(-c3ccc(F)cc3)[nH]c2n1 [Example 417, 2-(4-(2-amino-8-(4-fluorophenyl)-9H-purin-6-yl)piperazin-1-yl)-N-(thiazol-2-yl)acetamide] | > 10 µM
26 | CN(C(=O)CN1CCN(c2nc(N)nc3sc(CCc4ccc(F)cc4)nc23)CC1)c1ccccc1 [Example 139, 5-amino-2-[2-(4-fluorophenyl)ethyl]-7-(4-[(methylphenylcarbamoyl)-methyl]piperazin-1-yl)-thiazolo[5,4-d]pyrimidine] | 3.29 µM
27 | Nc1nc(N2CCN(C(=O)COc3ccc(Br)cc3)CC2)c2nc(Cc3ccc(F)cc3)sc2n1 [Example 231, 1-(4-(5-amino-2-(4-fluorobenzyl)thiazolo[5,4-d]pyrimidin-7-yl)piperazin-1-yl)-2-(4-bromophenoxy)ethanone] | 0.55 µM
